The target in data set [1] is T1, recombinant human Meningioma Expressed Antigen 5 (MGEA5), also referred to as O-GcNAcase (OGA) (Homo sapiens, UniProt O60502).
T1 construct: Full length OGA enzyme was purchased at OnGene (cat #TP322411); purchased OnGene (so in the source)
T1 sequence (O60502 1-916): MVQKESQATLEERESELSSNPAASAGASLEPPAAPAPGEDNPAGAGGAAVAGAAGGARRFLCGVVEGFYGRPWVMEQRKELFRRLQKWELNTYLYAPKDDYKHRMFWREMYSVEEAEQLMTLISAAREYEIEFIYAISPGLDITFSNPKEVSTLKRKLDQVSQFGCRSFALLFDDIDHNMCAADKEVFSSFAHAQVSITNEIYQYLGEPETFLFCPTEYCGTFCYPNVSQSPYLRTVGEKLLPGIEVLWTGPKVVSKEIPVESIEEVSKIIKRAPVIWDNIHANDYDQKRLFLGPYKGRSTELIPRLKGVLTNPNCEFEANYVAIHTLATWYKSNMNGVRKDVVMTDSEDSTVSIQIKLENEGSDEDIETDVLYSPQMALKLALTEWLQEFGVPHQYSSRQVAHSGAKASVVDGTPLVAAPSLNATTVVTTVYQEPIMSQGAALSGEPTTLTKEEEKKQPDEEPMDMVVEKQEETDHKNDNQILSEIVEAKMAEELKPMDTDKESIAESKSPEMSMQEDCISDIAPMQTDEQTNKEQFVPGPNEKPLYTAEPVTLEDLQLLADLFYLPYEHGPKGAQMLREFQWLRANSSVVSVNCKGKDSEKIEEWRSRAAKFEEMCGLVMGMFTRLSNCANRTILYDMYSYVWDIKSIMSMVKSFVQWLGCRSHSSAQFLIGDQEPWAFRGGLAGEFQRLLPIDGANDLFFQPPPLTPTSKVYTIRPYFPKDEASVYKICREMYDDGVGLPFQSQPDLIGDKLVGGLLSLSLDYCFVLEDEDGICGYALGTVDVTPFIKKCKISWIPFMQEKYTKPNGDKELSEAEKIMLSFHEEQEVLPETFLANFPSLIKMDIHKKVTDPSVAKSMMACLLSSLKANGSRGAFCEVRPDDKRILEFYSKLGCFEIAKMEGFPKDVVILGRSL
The data set is described as follows: OGA biochemical assay (inhibition of FM-GlcNAc hydrolysis, fluorescence). To be noted: FM-GlcNAc substrate; for Emax: read-out: Enzymatic Emax (%); for IC50: read-out: Enzymatic hOGA, pIC50 (converted). In outline: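 Full-length recombinant human OGA (2 nM) pre-incubated 60 min with compound, then FM-GlcNAc (100 uM final) added in 200 mM citrate/phosphate pH 7.2 with 0.005% Tween-20; 6 h at room temperature, stopped with pH 11.0 carbonate. Fluorescein read at ex 485/em 538 nm; IC50 and Hill coefficient from curve fit against no-inhibitor and saturating-standard controls.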

The target in the next data set is T2, OGA (Homo sapiens, UniProt O60502).
T2 construct: endogenous in cells; host or cells: HEK293 cells inducible for P301L mutant human Tau (isoform 2N4R)
T2 sequence (O60502 1-916): T1 sequence (O60502 1-916)
The data set is described as follows: OGA cellular assay (ICC detection of O-GlcNAcylated proteins in HEK293 cells inducible for P301L mutant human Tau). Format: cell-based. To be noted: 6 hours incubation; for Emax: HEK293, HEK293 cells inducible for P301L mutant human Tau; for Emax / Cellular Emax (%): maximum = Thiamet G 200 uM; for EC50: read-out: Cellular hOGA, pEC50 (converted). As to the method: HEK293 cells inducible for P301L mutant human Tau (isoform 2N4R) were established at Janssen. Thiamet-G was used for both plate validation (high control) and as reference compound (reference EC50 assay validation). OGA inhibition is evaluated through the immunocytochemical (ICC) detection of O-GlcNAcylated proteins by the use of a monoclonal antibody (CTD110.6; Cell Signaling, #9875) detecting O-GlcNAcylated residues as previously described (Dorfmueller et al. 2010 Chemistry & biology, 17:1250). Inhibition of OGA will result in an increase of O-GlcNAcylated protein levels resulting in an increased signal in the experiment. Cell nuclei are stained with Hoechst to give a cell culture quality control and a rough estimate of immediate compounds toxicity, if any. ICC pictures are imaged with a Perkin Elmer Opera Phenix plate microscope and quantified with the provided software Perkin Elmer Harmony 4.1.
Cells were propagated in DMEM high Glucose (Sigma, #D5796) following standard procedures. 2 days before the cell assay cells are split, counted and seeded in Poly-D-Lysine (PDL) coated 96-wells (Greiner, #655946) plate at a cell density of 12,000 cells per cm^2 (4,000 cells per well) in 100 μl of Assay Medium (Low Glucose medium is used to reduce basal levels of GlcNAcylation) (Park et al. 2014 The Journal of biological chemistry 289:13519). At the day of compound test medium from assay plates was removed and replenished with 90 μl of fresh Assay Medium. 10 μl of compounds at a 10 fold final concentration were added to the wells. Plates were centrifuged shortly before incubation in the cell incubator for 6 hours. DMSO concentration was set to 0.2%. Medium is discarded by applying vacuum. For staining of cells medium was removed and cells washed once with 100 μl D-PBS (Sigma, #D8537). From next step onwards unless other stated assay volume was always 50 μl and incubation was performed without agitation and at room temperature. Cells were fixed in 50 μl of a 4% paraformaldehyde (PFA, Alpha aesar, #043368) PBS solution for 15 minutes at room temperature. […] Before analysis samples were washed 2 times manually for 5 minutes in ICC base buffer.
Imaging is performed using Perkin Elmer Phenix Opera using a water 20×objective and recording 9 fields per well. Intensity readout at 488 nm is used as a measure of O-GlcNAcylation level of total proteins in wells. To assess potential toxicity of compounds nuclei were counted using the Hoechst staining. IC50-values are calculated using parametric non-linear regression model fitting. As a maximum inhibition Thiamet G at a 200 uM concentration is present on each plate. In addition, a concentration response of Thiamet G is calculated on each plate.

Where [2] appears, read: HEK293 cells inducible for P301L mutant human Tau.

Broadly, the melting point is the temperature of the solid-liquid transition. As a reminder, the Emax is the maximal effect, on the per cent scale that the assay sets.

Where a name gives a salt, the structure may show the parent alone.

For the compound `CC(=O)Nc1ccnc(CN2CCC[C@H](Cc3cc(C)nc(C)c3)C2)c1` (as salt: HCl) [Product 31], the melting point worked out at 133 °C.

As for `CC(=O)Nc1ccnc(C(C)N2CCC[C@H](Cc3cc(C)nc(C)c3)C2)c1` (stereo partly drawn) (as salt: HCl) [Product 32], the melting point was found to be 138 °C.

Compound `CC(=O)Nc1cncc(CN2CCC[C@H](Cc3cc(C)nc(C)c3)C2)c1` (as salt: HCl) [Product 34] came in with a melting point of 186.5 °C.

`CC(=O)Nc1cc(CN2CCC[C@H](Cc3cc(C)nc(C)c3)C2)cnn1` (as salt: HCl) [Product 62] returned a melting point of 206.5 °C.

`CC(=O)Nc1cc(C(C)N2CCCC(CNc3cc(C)nc(C)c3)C2)[nH]n1` (stereo not drawn) (as salt: HCl) [Product 83] displayed a melting point of 245 °C.

`COc1ccc(F)c(C(C)N2CCCC(CNc3cc(C)nc(C)c3)C2)n1` (stereo not drawn) (as salt: HCl) [Product 86]: the melting point stood at 206.8 °C.

For the compound `COc1ccc(F)c(C(C)N2CCCC(CNc3cc(C)nc(C(F)(F)F)c3)C2)n1` (stereo not drawn) (as salt: HCl) [Product 96], the melting point came out at 211.6 °C.

As for `COc1ccc(F)c(C(C)N2CCCC(c3cc(C)nc(C)c3)C2)n1` (stereo not drawn) [Product 74], in data set [1], the Emax turned out to be 102% and the IC50 was 35.5 nM. Moreover, the Emax on OGA came out at 48%. Further, the EC50 on OGA (setting [2]) was 676 nM.

As for `COc1cc(C[C@H]2CCCN(C(C)c3nc(OC)ccc3F)C2)cc(C)n1` (stereo partly drawn) [Product 76], the “Enzymatic Emax (%)” value in data set [1] (listed as 76) turned out to be 101%. Also, the IC50 in data set [1] was 52.5 nM. Further, the “Cellular Emax (%)” value at OGA (HEK293 cells inducible for P301L mutant human Tau, listed as 76) stood at 30%. In addition, the EC50 at OGA (setting [2]) is greater than 1000 nM.

On to `COc1ccc(F)c(C(C)N2CCC[C@H](Cc3cc(C)nc(C(F)(F)F)c3)C2)n1` (stereo partly drawn) [Product 77], for which, in data set [1], the “Enzymatic Emax (%)” value was determined as 101% and the IC50 is 14.8 nM. The Emax on OGA came out at 49%. Moreover, the EC50 at OGA (setting [2]) was 955 nM.

Turning to `CC(=O)Nc1cc(C(C)N2CCCC(Oc3cc(C)nc(C)c3)C2)n[nH]1` (stereo not drawn) [Product 80], in data set [1], the Emax stood at 102% and the IC50 is 102 nM. Besides, the Emax on OGA was 7%. Further, the EC50 on OGA (setting [2]) was greater than 1000 nM.

Regarding `COc1ccc(F)c(C(C)N2CCCC(Oc3cc(C)nc(C(F)(F)F)c3)C2)n1` (stereo not drawn) [Product 82], in data set [1], the Emax stood at 97% and the IC50 was 891 nM. The Emax on OGA stood at 6%. Also, at OGA (setting [2]), the EC50 was greater than 1000 nM.

Turning to `COc1ccc(F)c(C(C)N2CCCC(CNc3cc(C)nc(C)c3)C2)n1` (stereo not drawn) [Product 86], in data set [1], the Emax stood at 102% and the IC50 is 17 nM. Also, the Emax on OGA worked out at 94%. Also, the EC50 at OGA (setting [2]) was 56.2 nM.

With `COc1cccc([C@H](C)N2CCC[C@@H](CNc3cc(C)nc(C(F)(F)F)c3)C2)n1` [Product 95], in data set [1], the “Enzymatic Emax (%)” value is 103% and the “Enzymatic hOGA; pIC50” value was determined as 7.8. At OGA (setting [2]), the “Cellular hOGA; pEC50” value is recorded as less than 6 and the “Cellular Emax (%)” value amounted to 44%.

`COc1ccc(F)c(C(C)N2CCCC(CNc3cc(C)nc(C(F)(F)F)c3)C2)n1` (stereo not drawn) [Product 96]: in data set [1], the Emax came out at 104% and the IC50 was 13.5 nM. Further, the Emax on OGA is 23%. In addition, on OGA (setting [2]), the EC50 is greater than 1000 nM.

On to `CC(=O)Nc1cc(C(C)N2CCCC(Oc3ncc(C)nc3C)C2)n[nH]1` (stereo not drawn) [Product 117], for which, in data set [1], the Emax is 102% and the IC50 was 64.6 nM. For the same compound, at OGA, the Emax stood at 30%. For the same compound, the EC50 on OGA (setting [2]) was greater than 1000 nM.

As to `COc1cc(C[C@H]2CCCN(C(C)c3nc(OC)ccc3F)C2)cc(C)n1` (stereo partly drawn) [Product 118], in data set [1], the Emax turned out to be 99% and the IC50 is 87.1 nM. Further, the “Cellular Emax (%)” value on OGA (HEK293 cells inducible for P301L mutant human Tau, listed as 118) was 82%. For the same compound, at OGA (setting [2]), the EC50 was 219 nM.

As to `COc1ccc(F)c(C(C)N2CCCC(Oc3cc(C)nc(C)c3)C2)n1` (stereo not drawn) [Product 137], the Emax in data set [1] is 102%; on OGA, 4%. For the same compound, in data set [1], the IC50 is 107 nM. For the same compound, the EC50 at OGA (setting [2]) is greater than 1000 nM.

For the compound `CCOc1cc(CN2CCC[C@H](Cc3cc(C)nc(C)c3)C2)n(C)n1` [Product 162], the “Enzymatic Emax (%)” value in data set [1] is on record as 36%. Also, the Emax on OGA is -6%. The EC50 on OGA (setting [2]) is greater than 1000 nM.

The values are drawn from patent publication US20210300900A1, “OGA INHIBITOR COMPOUNDS” (Janssen Pharmaceutica NV, priority 2018, published 2021).
